Data from PubChem BioAssay (NCI).
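Test compounds were applied to cells in 96-well plates for 48 hours at 5 doses. GI50 marks 50% less growth. TGI: total growth inhibition.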

What was measured:
Assay in all cases: growth of human tumour cells (NCI), 48 h
[1] = system: MOLT-4 leukemia
[2] = system: UACC-257 melanoma
[3] = system: RPMI-8226 leukemia
[4] = system: SW-620 colon
[5] = system: T-47D breast
[6] = system: NCI/ADR-RES ovarian
[7] = system: HL-60(TB) leukemia
[8] = system: HT29 colon
[9] = system: 786-0 renal
[10] = system: HCC-2998 colon
[11] = system: SK-OV-3 ovarian
[12] = system: IGROV1 ovarian
[13] = system: SNB-19 CNS
[14] = system: SF-268 CNS
[15] = system: NCI-H226 lung
[16] = system: HS 578T breast
[17] = system: HCT-15 colon
[18] = system: SNB-75 CNS
[19] = system: SR leukemia
[20] = system: HOP-92 NSCLC
[21] = system: EKVX NSCLC
[22] = system: MDA-MB-435
[23] = system: SK-MEL-5 melanoma
[24] = system: MCF7 breast
[25] = system: COLO 205 colon
[26] = system: LOX IMVI melanoma
[27] = system: OVCAR-8 ovarian
[28] = system: CAKI-1 renal
[29] = system: BT-549 breast
[30] = system: M14 melanoma
[31] = system: A498 renal
[32] = system: OVCAR-5 ovarian
[33] = system: HOP-62 NSCLC
[34] = system: K-562 leukemia
[35] = system: ACHN renal
[36] = system: NCI-H522 lung
[37] = system: SK-MEL-28 melanoma
[38] = system: OVCAR-4 ovarian
[39] = system: UACC-62 melanoma
[40] = system: PC-3 prostate
[41] = system: KM12 colon
[42] = system: SF-295 CNS
[43] = system: SN12C renal
[44] = system: SF-539 CNS
[45] = system: CCRF-CEM leukemia
[46] = system: MDA-MB-231 breast
[47] = system: UO-31 renal
[48] = system: DU-145 prostate
[49] = system: RXF 393 renal
[50] = system: SK-MEL-2 melanoma
[51] = system: MALME-3M melanoma
[52] = system: HCT-116 colon
[53] = system: OVCAR-3 ovarian
[54] = system: TK-10 renal
[55] = system: NCI-H23 lung
[56] = system: A549 NSCLC

SMILES: C=CCCCCOc1ccccc1-c1cnc(OCCCCC=C)n1C
- GI50 [1]: 4.54 µM
- TGI [1]: 18.7 µM
- GI50 [2]: 2.14 µM
- TGI [2]: 12.9 µM
- GI50 [3]: 3.22 µM
- TGI [3]: 14.1 µM
- GI50 [4]: 2.97 µM
- TGI [4]: 11 µM
- GI50 [5]: 3.53 µM
- TGI [5]: 29.5 µM
- GI50 [6]: 2.29 µM
- TGI [6]: 5.96 µM
- GI50 [7]: 2.17 µM
- TGI [7]: 7.14 µM
- GI50 [8]: 3.22 µM
- TGI [8]: 10.2 µM
- GI50 [9]: 5.29 µM
- TGI [9]: 21.3 µM
- GI50 [10]: 6.57 µM
- TGI [10]: 21.3 µM
- GI50 [11]: 3.96 µM
- TGI [11]: 19.7 µM
- GI50 [12]: 4.64 µM
- TGI [12]: 20.1 µM
- GI50 [13]: 7.39 µM
- TGI [13]: 38.1 µM
- GI50 [14]: 4.21 µM
- TGI [14]: 21.3 µM
- GI50 [15]: 13 µM
- TGI [15]: 28.5 µM
- GI50 [16]: 4.13 µM
- TGI [16]: 23.7 µM
- GI50 [17]: 4 µM
- TGI [17]: 16.3 µM
- GI50 [18]: 2.52 µM
- TGI [18]: 11.6 µM
- GI50 [19]: 4.3 µM
- TGI [19]: 13.7 µM
- GI50 [20]: 1.81 µM
- TGI [20]: 19.7 µM
- GI50 [21]: 11 µM
- TGI [21]: 44.1 µM
- GI50 [22]: 2.08 µM
- TGI [22]: 5.22 µM
- GI50 [23]: 3.69 µM
- TGI [23]: 13.7 µM
- GI50 [24]: 2.89 µM
- TGI [24]: 11.6 µM
- GI50 [25]: 3.23 µM
- TGI [25]: 11.1 µM
- GI50 [26]: 4.89 µM
- TGI [26]: 17 µM
- GI50 [27]: 4.23 µM
- TGI [27]: 17.2 µM
- GI50 [28]: 4.36 µM
- TGI [28]: 23.8 µM
- GI50 [29]: 4.15 µM
- TGI [29]: 18.7 µM
- GI50 [30]: 2.88 µM
- TGI [30]: 14.6 µM
- GI50 [31]: 2.1 µM
- TGI [31]: 10.2 µM
- GI50 [32]: 5.22 µM
- TGI [32]: 23.1 µM
- GI50 [33]: 5.13 µM
- TGI [33]: 20.6 µM
- GI50 [34]: 3.74 µM
- TGI [34]: 14.1 µM
- GI50 [35]: 6.8 µM
- TGI [35]: 38.9 µM
- GI50 [36]: 2.59 µM
- TGI [36]: 6.72 µM
- GI50 [37]: 4.51 µM
- TGI [37]: 31.6 µM
- GI50 [38]: 10.3 µM
- TGI [38]: 50.7 µM
- GI50 [39]: 3.93 µM
- TGI [39]: 17.4 µM
- GI50 [40]: 5.38 µM
- TGI [40]: 28.9 µM
- GI50 [41]: 3.3 µM
- TGI [41]: 13.1 µM
- GI50 [42]: 4.03 µM
- TGI [42]: 20.1 µM
- GI50 [43]: 5.51 µM
- TGI [43]: 23.9 µM
- GI50 [44]: 5.82 µM
- TGI [44]: 19.7 µM
- GI50 [45]: 4.27 µM
- TGI [45]: 20.4 µM
- GI50 [46]: 5.19 µM
- TGI [46]: 20.3 µM
- GI50 [47]: 3.09 µM
- TGI [47]: 20.7 µM
- GI50 [48]: 5.68 µM
- TGI [48]: 22.3 µM
- GI50 [49]: 5.23 µM
- TGI [49]: 18.2 µM
- GI50 [50]: 2.56 µM
- TGI [50]: 5.88 µM
- GI50 [51]: 3.63 µM
- TGI [51]: 16.4 µM
- GI50 [52]: 2.66 µM
- TGI [52]: 11.8 µM
- GI50 [53]: 3.21 µM
- TGI [53]: 10.1 µM
- GI50 [54]: 3.5 µM
- TGI [54]: 23 µM
- GI50 [55]: 5.04 µM
- TGI [55]: 26.8 µM
- GI50 [56]: 3.92 µM
- TGI [56]: 21.9 µM
